PubChem BioAssay AID2060485 (Molecular Pharmacology Branch, DTP, NCI, 2025)

Tested on: A375 multi-cell spheroids with HUVEC/MSC, viability
Assay: Anticancer human tumor A375 cell line growth inhibition [GQUAD];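 also: spheroids exposed to compounds for seven days before readout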
Conditions: for IC50: curve of first compound; for viability, T/C: stronger effect = lower value
In short: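 Multi-cell-type spheroids of tumor cells with HUVEC and mesenchymal stem cells, treated with drug combinations. Concentrations descend in half-log steps from near clinical Cmax, or from 10 microM where Cmax is unknown; viability read-out.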

[1] = second compound 0.0316 µM, first compound 0.000999 µM
[2] = second compound 0.0316 µM, first compound 0.00316 µM
[3] = second compound 0.0316 µM, first compound 0.00999 µM
[4] = second compound 0.0316 µM, first compound 0.0316 µM
[5] = second compound 0.0316 µM, first compound 0.0999 µM
[6] = second compound 0.0316 µM, first compound 0.316 µM
[7] = second compound 0.1 µM, first compound 0.000999 µM
[8] = second compound 0.1 µM, first compound 0.00316 µM
[9] = second compound 0.1 µM, first compound 0.00999 µM
[10] = second compound 0.1 µM, first compound 0.0316 µM
[11] = second compound 0.1 µM, first compound 0.0999 µM
[12] = second compound 0.1 µM, first compound 0.316 µM
[13] = second compound 0.316 µM, first compound 0.000999 µM
[14] = second compound 0.316 µM, first compound 0.00316 µM
[15] = second compound 0.316 µM, first compound 0.00999 µM
[16] = second compound 0.316 µM, first compound 0.0316 µM
[17] = second compound 0.316 µM, first compound 0.0999 µM
[18] = second compound 0.316 µM, first compound 0.316 µM
[19] = second compound 1 µM, first compound 0.000999 µM
[20] = second compound 1 µM, first compound 0.00316 µM
[21] = second compound 1 µM, first compound 0.00999 µM
[22] = second compound 1 µM, first compound 0.0316 µM
[23] = second compound 1 µM, first compound 0.0999 µM
[24] = second compound 1 µM, first compound 0.316 µM
[25] = second compound 3.16 µM, first compound 0.000999 µM
[26] = second compound 3.16 µM, first compound 0.00316 µM
[27] = second compound 3.16 µM, first compound 0.00999 µM
[28] = second compound 3.16 µM, first compound 0.0316 µM
[29] = second compound 3.16 µM, first compound 0.0999 µM
[30] = second compound 3.16 µM, first compound 0.316 µM
[31] = second compound 10 µM, first compound 0.000999 µM
[32] = second compound 10 µM, first compound 0.00316 µM
[33] = second compound 10 µM, first compound 0.00999 µM
[34] = second compound 10 µM, first compound 0.0316 µM
[35] = second compound 10 µM, first compound 0.0999 µM
[36] = second compound 10 µM, first compound 0.316 µM

CC[C@@]1(O)C(=O)OCc2c1cc1n(c2=O)Cc2cc3c(CN(C)C)c(O)ccc3nc2-1 + Cc1[nH]c2ccc(F)cc2c1-c1nc2c3cccnc3c3ncccc3c2[nH]1
IC50 (second compound 0.0316 µM): 52.8 nM
IC50 (second compound 0.1 µM): 53.8 nM
IC50 (second compound 0.316 µM): 52.4 nM
IC50 (second compound 1 µM): 46.9 nM
IC50 (second compound 3.16 µM): 38.4 nM
IC50 (second compound 10 µM): 46.1 nM
viability, T/C [1]: 109%
viability, T/C [2]: 110%
viability, T/C [3]: 109%
viability, T/C [4]: 71.6%
viability, T/C [5]: 23.4%
viability, T/C [6]: 12.9%
viability, T/C [7]: 98.5%
viability, T/C [8]: 105%
viability, T/C [9]: 111%
viability, T/C [10]: 73.3%
viability, T/C [11]: 23.7%
viability, T/C [12]: 14%
viability, T/C [13]: 109%
viability, T/C [14]: 108%
viability, T/C [15]: 114%
viability, T/C [16]: 69.9%
viability, T/C [17]: 25.9%
viability, T/C [18]: 13.6%
viability, T/C [19]: 118%
viability, T/C [20]: 107%
viability, T/C [21]: 125%
viability, T/C [22]: 65.4%
viability, T/C [23]: 27.4%
viability, T/C [24]: 13.8%
viability, T/C [25]: 92.7%
viability, T/C [26]: 88.1%
viability, T/C [27]: 86.4%
viability, T/C [28]: 51.6%
viability, T/C [29]: 30.7%
viability, T/C [30]: 16.3%
viability, T/C [31]: 92.2%
viability, T/C [32]: 101%
viability, T/C [33]: 105%
viability, T/C [34]: 62.9%
viability, T/C [35]: 26.1%
viability, T/C [36]: 14.6%

CCc1c2c(nc3ccc(O)cc13)-c1cc3c(c(=O)n1C2)COC(=O)[C@]3(O)CC + Cc1[nH]c2ccc(F)cc2c1-c1nc2c3cccnc3c3ncccc3c2[nH]1
IC50 (second compound 0.0316 µM): < 0.999 nM
IC50 (second compound 0.1 µM): < 0.999 nM
IC50 (second compound 0.316 µM): < 0.999 nM
IC50 (second compound 1 µM): < 0.999 nM
IC50 (second compound 3.16 µM): < 0.999 nM
IC50 (second compound 10 µM): < 0.999 nM
viability, T/C [1]: 46%
viability, T/C [2]: 20%
viability, T/C [3]: 16.8%
viability, T/C [4]: 19.7%
viability, T/C [5]: 4.81%
viability, T/C [6]: 0.52%
viability, T/C [7]: 50.3%
viability, T/C [8]: 20.4%
viability, T/C [9]: 14.7%
viability, T/C [10]: 16.9%
viability, T/C [11]: 5.44%
viability, T/C [12]: 0.54%
viability, T/C [13]: 47.8%
viability, T/C [14]: 18.3%
viability, T/C [15]: 15.2%
viability, T/C [16]: 19.5%
viability, T/C [17]: 5.75%
viability, T/C [18]: 0.54%
viability, T/C [19]: 41.1%
viability, T/C [20]: 20.4%
viability, T/C [21]: 18.4%
viability, T/C [22]: 16.4%
viability, T/C [23]: 5.26%
viability, T/C [24]: 0.53%
viability, T/C [25]: 32%
viability, T/C [26]: 20.9%
viability, T/C [27]: 17.6%
viability, T/C [28]: 11%
viability, T/C [29]: 0.47%
viability, T/C [30]: 0.17%
viability, T/C [31]: 39.4%
viability, T/C [32]: 17.6%
viability, T/C [33]: 17.1%
viability, T/C [34]: 14.1%
viability, T/C [35]: 1.7%
viability, T/C [36]: 0.25%

COc1cc(C2c3cc4c(cc3C(OC3OC5COC(C)OC5C(O)C3O)C3COC(=O)C23)OCO4)cc(OC)c1O (stereo unspecified) + Cc1[nH]c2ccc(F)cc2c1-c1nc2c3cccnc3c3ncccc3c2[nH]1
IC50 (second compound 0.0316 µM): 1630 nM
IC50 (second compound 0.1 µM): 1010 nM
IC50 (second compound 0.316 µM): 1840 nM
IC50 (second compound 1 µM): 1810 nM
IC50 (second compound 3.16 µM): 1300 nM
IC50 (second compound 10 µM): 969 nM
viability, T/C [4]: 109%
viability, T/C (second compound 0.0316 µM, first compound 0.1 µM): 109%
viability, T/C [6]: 97.6%
viability, T/C (second compound 0.0316 µM, first compound 1 µM): 59.6%
viability, T/C (second compound 0.0316 µM, first compound 3.16 µM): 37.6%
viability, T/C (second compound 0.0316 µM, first compound 10 µM): 26.9%
viability, T/C [10]: 97.7%
viability, T/C (second compound 0.1 µM, first compound 0.1 µM): 134%
viability, T/C [12]: 94.8%
viability, T/C (second compound 0.1 µM, first compound 1 µM): 51.5%
viability, T/C (second compound 0.1 µM, first compound 3.16 µM): 33.1%
viability, T/C (second compound 0.1 µM, first compound 10 µM): 27.7%
viability, T/C [16]: 101%
viability, T/C (second compound 0.316 µM, first compound 0.1 µM): 156%
viability, T/C [18]: 89.2%
viability, T/C (second compound 0.316 µM, first compound 1 µM): 68.2%
viability, T/C (second compound 0.316 µM, first compound 3.16 µM): 40.2%
viability, T/C (second compound 0.316 µM, first compound 10 µM): 26%
viability, T/C [22]: 109%
viability, T/C (second compound 1 µM, first compound 0.1 µM): 130%
viability, T/C [24]: 89.7%
viability, T/C (second compound 1 µM, first compound 1 µM): 62.5%
viability, T/C (second compound 1 µM, first compound 3.16 µM): 43.2%
viability, T/C (second compound 1 µM, first compound 10 µM): 29%
viability, T/C [28]: 69%
viability, T/C (second compound 3.16 µM, first compound 0.1 µM): 86.6%
viability, T/C [30]: 69.8%
viability, T/C (second compound 3.16 µM, first compound 1 µM): 51.6%
viability, T/C (second compound 3.16 µM, first compound 3.16 µM): 40.2%
viability, T/C (second compound 3.16 µM, first compound 10 µM): 27.8%
viability, T/C [34]: 78.9%
viability, T/C (second compound 10 µM, first compound 0.1 µM): 87.4%
viability, T/C [36]: 76.1%
viability, T/C (second compound 10 µM, first compound 1 µM): 48.2%
viability, T/C (second compound 10 µM, first compound 3.16 µM): 34.4%
viability, T/C (second compound 10 µM, first compound 10 µM): 25.6%
